{
  "source": "patent US8449635B2",
  "about": "“Abrasive articles and methods for making same” (Saint-Gobain Abrasives, Inc., priority 2007, dated 2013)",
  "experiment": "Solubility of photoinitiator",
  "format": "physicochemical",
  "data": [
    {"smiles": "Cc1cc(C)c(C(=O)P(=O)(C(=O)c2c(C)cc(C)cc2C)c2ccccc2)c(C)c1", "note": "[Irgacure 819, bis(2,4,6-trimethylbenzoyl) phenyl phosphine oxide]", "values": [
      {"measurement": "Solubility (wt %)", "value": "<5", "unit": "wt %"}
    ]}
  ]
}
